Data as given in PubChem BioAssay AID1508612.

Assay: passive permeability, PAMPA, ADME assay (AID 1508612)
Settings: pH 7.4, 30.0 min, 50.0 µM

Row | Structure (SMILES) | Papp
1 | Cc1ccc(OCCn2c(CCNC(=O)C3CCCCC3)nc3ccccc32)cc1 | > 1000 ×10⁻⁶ cm/s
2 | N=c1c2c(ncn1-c1ccccc1)Oc1ccc3ccccc3c1C2c1ccc2c(c1)CCO2 (configuration not stated) | 282 ×10⁻⁶ cm/s
3 | CCC(=O)NC(c1ccc(OC)cc1)c1cc(Cl)c2cccnc2c1O (configuration not stated) | 687 ×10⁻⁶ cm/s
4 | COC(=O)c1ccc2c(C(=Nc3ccc(N(C)C(=O)CN4CCN(C)CC4)cc3)c3ccccc3)c(O)[nH]c2c1 | 12.5 ×10⁻⁶ cm/s
5 | Cc1ccc2oc3c(c(=O)c2c1)C(c1ccc(O)cc1)N(CCCN(C)C)C3=O (configuration not stated) | < 1 ×10⁻⁶ cm/s
6 | CC1CCc2cc(F)ccc2N1C(=O)CSc1nnc2c(n1)[nH]c1ccccc12 (configuration not stated) | > 1000 ×10⁻⁶ cm/s
7 | Cc1nc([C@](C)(O)CO)sc1-c1cnc(N)c(O[C@H](C)c2cc(F)ccc2-n2nccn2)c1 | 414 ×10⁻⁶ cm/s
8 | Cc1ccc(-c2cc(C(=O)Nc3ccc(-c4noc(=O)[nH]4)cc3)c3ccccc3n2)cc1C | 3 ×10⁻⁶ cm/s
9 | CCc1nnc(NC(=O)c2nc(S(=O)(=O)Cc3ccc(C)cc3)ncc2Cl)s1 | 32.9 ×10⁻⁶ cm/s
10 | COc1ccc(-n2nc(C3CCN(C(=O)c4ccccc4)CC3)[nH]c2=O)cc1 | 331 ×10⁻⁶ cm/s
11 | Ic1ccccc1CNC1C2CCN(CC2)C1C(c1ccccc1)c1ccccc1 (configuration not stated) | > 1000 ×10⁻⁶ cm/s
12 | O=C1CCCC2=C1C(c1ncccc1Br)N=C(Nc1nc3ccccc3o1)N2 (configuration not stated) | 371 ×10⁻⁶ cm/s
13 | Cc1cc(-c2ccc(C)c(S(=O)(=O)NCC3CCN(Cc4ccc(F)cc4)CC3)c2)on1 | > 1000 ×10⁻⁶ cm/s
14 | COC(=O)c1ccccc1NC(=O)c1ccccc1OC(F)F | > 1000 ×10⁻⁶ cm/s
15 | CCOc1ccc(CCNC(=O)c2cc3sccc3n2Cc2ccccc2)c(F)c1OCC | < 1 ×10⁻⁶ cm/s
16 | c1ccc(-c2nc(N3CCCCCC3)c3ccccc3n2)nc1 | > 1000 ×10⁻⁶ cm/s
17 | CN1C(=O)c2ccccc2[S@](=O)c2ccc(C(=O)NCCc3cccs3)cc21 | 626 ×10⁻⁶ cm/s
18 | CC(=O)N1CCc2cc(S(=O)(=O)NCCC3=CCCCC3)ccc21 | 444 ×10⁻⁶ cm/s
19 | Cc1ccc(S(=O)(=O)Nc2cnccc2C(=O)Nc2nc(-c3cccc(F)c3)cs2)cc1 | 153 ×10⁻⁶ cm/s
20 | C=CC(=O)Nc1cccc(Oc2nc(Nc3ccc(N4CCN(C)CC4)cc3)ncc2Cl)c1 | > 1000 ×10⁻⁶ cm/s
21 | Cn1nnnc1SCCCNCc1cccc(OCc2ccccc2Cl)c1 | > 1000 ×10⁻⁶ cm/s
22 | O=C(N/N=C/c1ccc(Sc2ccccn2)o1)c1ccncc1 | 76.8 ×10⁻⁶ cm/s
23 | CC(C)c1ccccc1-c1ncc(F)c(NCc2ccc(-c3ccn[nH]3)cc2)n1 | > 1000 ×10⁻⁶ cm/s
24 | CC(C)(C)NS(=O)(=O)c1ccc(-c2ccc3[nH]nc(N)c3c2)cc1 | 564 ×10⁻⁶ cm/s
25 | COc1cc(Nc2nc(-c3ccncc3)nc3ccccc23)ccc1NS(C)(=O)=O | > 1000 ×10⁻⁶ cm/s
26 | CCOC(=O)N1CCN(C(=O)Cn2sc3nc(C)cc(C)c3c2=O)CC1 | 47.1 ×10⁻⁶ cm/s

Row | Structure (SMILES) | Papp
27 | CCOc1ccc(CCNC(=O)c2cc3cccnc3n2Cc2cccc(C)n2)cc1OCC | 744 ×10⁻⁶ cm/s
28 | COc1ccccc1NC(=O)C1=C(C)Nc2c(C(=O)Nc3ccc(F)cc3)cnn2C1c1ccc(Cl)cc1 (configuration not stated) | 302 ×10⁻⁶ cm/s
29 | CC(=O)c1c(C)n(-c2ccccc2)c2ccc(O)cc12 | 779 ×10⁻⁶ cm/s
30 | N#Cc1ccc(S(=O)(=O)Nc2cnccc2C(=O)Nc2nc(-c3ccccc3)cs2)cc1 | 279 ×10⁻⁶ cm/s
31 | Cc1ccc(S(=O)(=O)Nc2cnccc2C(=O)Nc2nc3ccccc3s2)cc1 | 475 ×10⁻⁶ cm/s
32 | COCCNC(=O)c1ccc(-c2ncc3cnc(-c4cccc(F)c4)cn23)cc1 | 405 ×10⁻⁶ cm/s
33 | Cc1nn2c(c1-c1ccccc1-c1ccccc1)N(CC1CC1)CCC2 | > 1000 ×10⁻⁶ cm/s
34 | CC(C)c1nc(CN(C)C(=O)N[C@H](C(=O)N[C@@H](Cc2ccccc2)C[C@H](O)[C@H](Cc2ccccc2)NC(=O)OCc2cncs2)C(C)C)cs1 | > 1000 ×10⁻⁶ cm/s
35 | O=C1CCCC2=C1C(c1[nH]ncc1Cl)N=C(Nc1nc3ccc(Cl)cc3o1)N2 (configuration not stated) | 651 ×10⁻⁶ cm/s
36 | Cc1cn2nc(-c3nc(C4CCCN(C(=O)c5ccccc5)C4)no3)cc2c(=O)[nH]1 (configuration not stated) | 136 ×10⁻⁶ cm/s
37 | O=S(=O)(Nc1nccs1)c1ccc(NCc2cc(Cl)ccc2O)cc1 | 10.8 ×10⁻⁶ cm/s
38 | CN(C)c1ccc2cc(C(=O)N[C@@H](CCCN=C(N)CCl)C(=O)NCc3ccccc3)ccc2c1 | < 1 ×10⁻⁶ cm/s
39 | CC(C)(C)C1CCc2c(sc(NC(=O)c3ccncc3)c2C(N)=O)C1 (configuration not stated) | 581 ×10⁻⁶ cm/s
40 | N#Cc1ccccc1Nc1ncc(-c2cccc3ccccc23)o1 | 379 ×10⁻⁶ cm/s
41 | O=S(=O)(Nc1ccccc1)c1ccc(NCc2cccc(Cl)c2O)cc1 | 487 ×10⁻⁶ cm/s
42 | Cc1ncc2c(c1CNC(=O)Cn1cnc3ccccc3c1=O)CCNC2 | 59.6 ×10⁻⁶ cm/s
43 | O=C(O)c1ccc(N2C(=O)/C(=C/c3ccc(-c4ccc([N+](=O)[O-])cc4)o3)C=C2c2ccccc2)cc1 | 34.3 ×10⁻⁶ cm/s
44 | Fc1cc(Nc2nc(-c3ccncc3)nc3ccccc23)ccc1N1CCCCC1 | > 1000 ×10⁻⁶ cm/s
45 | O=c1cc(CN2CCCN(c3ccc(C(F)(F)F)cn3)CC2)nc2ccccn12 | > 1000 ×10⁻⁶ cm/s
46 | COc1cc(C2c3cc(O)c(OC)cc3CC3C(=O)OCC32)ccc1O (configuration not stated) | 129 ×10⁻⁶ cm/s
47 | COc1ccc(C(=O)Nc2nc(-c3ccccc3)cs2)c(OC)c1 | > 1000 ×10⁻⁶ cm/s
48 | C=C1[C@@H](C)C2[C@H](Cc3ccccc3)NC(=O)[C@@]23C(/C=C/C[C@H](C)C[C@@](C)(O)/C=C/[C@@H]3OC(C)=O)[C@@H]1O (some centres not stated) | 50 ×10⁻⁶ cm/s
49 | O=S(=O)(Nc1nc2n(n1)C(c1ccccc1)C=C(c1ccc(Cl)cc1)N2)c1ccccc1 (configuration not stated) | 9.09 ×10⁻⁶ cm/s
50 | OCc1cccc(-c2cc(-c3cccnc3)c3cncn3c2)c1 | 76 ×10⁻⁶ cm/s
51 | COc1cccc(Nc2nc(-c3ccncc3)nc3ccccc23)c1 | > 1000 ×10⁻⁶ cm/s
52 | COC1C(OC(=O)c2ccc(C)[nH]2)C(O)C(Oc2ccc3c(O)c(NC(=O)c4ccc(O)c(CC=C(C)C)c4)c(=O)oc3c2Cl)OC1(C)C (configuration not stated) | 7.04 ×10⁻⁶ cm/s
